Data reported in ChEMBL document CHEMBL1127986, “Synthesis and Biological Evaluation of New Leukotriene Analogs” (Bioorg Med Chem Lett, 1994).
The source made the active and inactive calls. No cut-off for these calls is given here.

Assays:
[1] = target: T1, Arachidonate 12-lipoxygenase (Rattus norvegicus) (UniProt Q02759); assay: Inhibition of 12-lipoxygenase was evaluated in rat platelets stimulated by thrombin up to a concentration of 10 uM; NE means No effect
T1 sequence (whole entry): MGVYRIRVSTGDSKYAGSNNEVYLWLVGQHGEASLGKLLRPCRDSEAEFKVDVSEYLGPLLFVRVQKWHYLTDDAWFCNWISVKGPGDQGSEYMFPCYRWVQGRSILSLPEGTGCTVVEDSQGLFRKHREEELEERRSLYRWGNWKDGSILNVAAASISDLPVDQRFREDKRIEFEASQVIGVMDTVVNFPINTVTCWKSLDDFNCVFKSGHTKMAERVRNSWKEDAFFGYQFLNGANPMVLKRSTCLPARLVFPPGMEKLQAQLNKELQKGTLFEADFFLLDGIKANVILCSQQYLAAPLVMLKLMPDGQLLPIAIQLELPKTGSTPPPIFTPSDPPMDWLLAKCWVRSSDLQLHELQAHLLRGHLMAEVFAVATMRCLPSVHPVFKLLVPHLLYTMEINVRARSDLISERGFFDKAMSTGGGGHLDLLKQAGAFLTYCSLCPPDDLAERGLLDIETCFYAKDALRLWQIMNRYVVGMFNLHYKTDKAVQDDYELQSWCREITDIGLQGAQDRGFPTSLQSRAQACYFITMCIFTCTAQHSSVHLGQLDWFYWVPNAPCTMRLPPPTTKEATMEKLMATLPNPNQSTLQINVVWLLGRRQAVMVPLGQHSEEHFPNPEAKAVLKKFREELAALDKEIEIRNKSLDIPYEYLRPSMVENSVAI

[2] = target: T2, Polyunsaturated fatty acid 5-lipoxygenase (Homo sapiens, UniProt P09917); assay: Inhibition of 5-lipoxygenase was evaluated in human polymorphonuclear leukocytes stimulated by calcium ionophore A-23187 for formation of 5-HETE; format: cell-based
T2 sequence (P09917 whole entry): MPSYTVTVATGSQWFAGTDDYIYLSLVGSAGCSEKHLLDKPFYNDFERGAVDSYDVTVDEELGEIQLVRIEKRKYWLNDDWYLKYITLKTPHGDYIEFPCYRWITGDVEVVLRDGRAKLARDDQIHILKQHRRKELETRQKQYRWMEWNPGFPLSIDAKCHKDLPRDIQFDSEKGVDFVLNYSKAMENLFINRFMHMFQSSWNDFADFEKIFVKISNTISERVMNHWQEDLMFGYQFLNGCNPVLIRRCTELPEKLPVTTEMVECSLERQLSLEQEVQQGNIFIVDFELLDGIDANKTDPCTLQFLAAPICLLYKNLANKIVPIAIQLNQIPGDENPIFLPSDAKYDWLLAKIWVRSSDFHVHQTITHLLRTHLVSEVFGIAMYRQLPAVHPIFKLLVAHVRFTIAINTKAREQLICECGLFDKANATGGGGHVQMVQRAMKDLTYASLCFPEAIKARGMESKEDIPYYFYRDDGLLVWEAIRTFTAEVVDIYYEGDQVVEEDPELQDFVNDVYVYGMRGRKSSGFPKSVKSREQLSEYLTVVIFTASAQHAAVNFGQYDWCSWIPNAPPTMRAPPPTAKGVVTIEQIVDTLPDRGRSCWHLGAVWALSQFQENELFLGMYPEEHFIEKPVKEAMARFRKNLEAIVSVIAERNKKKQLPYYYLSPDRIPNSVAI

[3] = target: T2, Polyunsaturated fatty acid 5-lipoxygenase; assay: Inhibition of 5-lipoxygenase was evaluated in human polymorphonuclear leukocytes stimulated by calcium ionophore A-23187 for formation of LTB4; format: cell-based
[4] = target: Cyclooxygenase (Rattus norvegicus) (UniProt P35355+Q63921); assay: Inhibition of cyclooxygenase was evaluated in rat platelets stimulated by thrombin up to a concentration of 10 uM; NE means No effect
[5] = target: T3, Polyunsaturated fatty acid 5-lipoxygenase (Homo sapiens) (UniProt P09917); assay: Inhibition of 5-lipoxygenase was evaluated in human polymorphonuclear leukocytes stimulated by calcium ionophore A-23187 for formation of 5-HETE at 10 uM; NA means Inactive; format: cell-based
T3 sequence (whole entry): T2 sequence (P09917 whole entry)

[6] = target: T3, Polyunsaturated fatty acid 5-lipoxygenase (Homo sapiens); assay: Inhibition of 5-lipoxygenase was evaluated in human polymorphonuclear leukocytes stimulated by calcium ionophore A-23187 for formation of LTB4 at 10 uM; NA means Inactive; format: cell-based
[7] = target: T3, Polyunsaturated fatty acid 5-lipoxygenase (Homo sapiens); assay: Inhibition of 5-lipoxygenase was evaluated in human polymorphonuclear leukocytes stimulated by calcium ionophore A-23187 for formation of 5-HETE at 10 uM; format: cell-based
[8] = target: T3, Polyunsaturated fatty acid 5-lipoxygenase (Homo sapiens); assay: Inhibition of 5-lipoxygenase was evaluated in human polymorphonuclear leukocytes stimulated by calcium ionophore A-23187 for formation of LTB4 at 10 uM; format: cell-based
[9] = target: T2, Polyunsaturated fatty acid 5-lipoxygenase; assay: Inhibition of 5-lipoxygenase was evaluated in human polymorphonuclear leukocytes stimulated by calcium ionophore A-23187 for formation of 5-HETE; NA means Not active; format: cell-based
[10] = target: T2, Polyunsaturated fatty acid 5-lipoxygenase; assay: Inhibition of 5-lipoxygenase was evaluated in human polymorphonuclear leukocytes stimulated by calcium ionophore A-23187 for formation of LTB4; NA means Not active; format: cell-based

| SMILES | Activity [1] | Activity [4] | inhibition [7] [%] | inhibition [8] [%] | IC50 [9] | IC50 [10] | also measured |
| --- | --- | --- | --- | --- | --- | --- | --- |
| CCCCC/C=C\Cc1ccc(/C=C/C(O)CCC/C=N\O)cc1 (centres undefined) | inactive | inactive |  |  |  |  | inhibition [5]: inactive; inhibition [6]: inactive |
| CCCCC/C=C\C\C=C/C=C/C=C/C(O)CCCCC (centres undefined) |  |  | 95 | 95 |  |  |  |
| CCCCC/C=C\C\C=C/C=C/C=C/C(O)CC/C=N\O (centres undefined) | inactive | inactive | 95 | 95 |  |  |  |
| CCCCCCCC\C=C/C=C/C=C/C(O)CCC/C=N/O (centres undefined) |  |  |  |  | Not Active | Not Active |  |
| CCCCC/C=C\C/C=C\C=C\C(O)CCC/C=N/O (centres undefined) |  |  | < 40 | 60 |  |  |  |
| CCCCC/C=C\C\C=C/C=C/C=C/C(CCC/C=N/O)OC (centres undefined) | inactive | inactive |  |  | Not Active | Not Active |  |
| CCCCC/C=C\C\C=C/C=C/C=C/C(O)CCC/C=N/OC (centres undefined) | inactive | inactive | 95 | 95 |  |  |  |

Continued, in another order:

| Activity [1] | Activity [4] | inhibition [7] [%] | inhibition [8] [%] | IC50 [9] | IC50 [10] | SMILES | also measured |
| --- | --- | --- | --- | --- | --- | --- | --- |
| inactive | inactive |  |  |  |  | CCCCC/C=C\C\C=C/C=C/C=C/[C@H](O)CCC/C=N/O | IC50 [2]: 2.8 µM; IC50 [3]: 3.3 µM |
| inactive | inactive |  |  | Not Active | Not Active | CCCCC/C=C\C\C=C/C=C/C=C/[C@@H](O)CCC/C=N/O |  |
| inactive | inactive |  |  |  |  | CCCCC/C=C\C\C=C/C=C/C=C/C(O)CCC/C=N/O (racemic) | IC50 [2]: 5.4 µM; IC50 [3]: 4.4 µM |
